These compounds were tested against Escherichia coli DNA gyrase A/B tetramer (Escherichia coli, UniProt P0AES4+P0AES6) (assay: DNA gyrase supercoiling activity fluorescence polarisation assay). Settings: not given.
Type: biochemical
Method in brief: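 Gyrase supercoiling reactions quenched with 40 nM 5′-BODIPY-FL oligodeoxynucleotide triplex probe in pH 3.5 NaCl/sodium acetate buffer; fluorescence anisotropy read after 60 min (485/535 nm).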

Chain of Escherichia coli DNA gyrase A/B tetramer (P0AES4 whole entry, one chain of several): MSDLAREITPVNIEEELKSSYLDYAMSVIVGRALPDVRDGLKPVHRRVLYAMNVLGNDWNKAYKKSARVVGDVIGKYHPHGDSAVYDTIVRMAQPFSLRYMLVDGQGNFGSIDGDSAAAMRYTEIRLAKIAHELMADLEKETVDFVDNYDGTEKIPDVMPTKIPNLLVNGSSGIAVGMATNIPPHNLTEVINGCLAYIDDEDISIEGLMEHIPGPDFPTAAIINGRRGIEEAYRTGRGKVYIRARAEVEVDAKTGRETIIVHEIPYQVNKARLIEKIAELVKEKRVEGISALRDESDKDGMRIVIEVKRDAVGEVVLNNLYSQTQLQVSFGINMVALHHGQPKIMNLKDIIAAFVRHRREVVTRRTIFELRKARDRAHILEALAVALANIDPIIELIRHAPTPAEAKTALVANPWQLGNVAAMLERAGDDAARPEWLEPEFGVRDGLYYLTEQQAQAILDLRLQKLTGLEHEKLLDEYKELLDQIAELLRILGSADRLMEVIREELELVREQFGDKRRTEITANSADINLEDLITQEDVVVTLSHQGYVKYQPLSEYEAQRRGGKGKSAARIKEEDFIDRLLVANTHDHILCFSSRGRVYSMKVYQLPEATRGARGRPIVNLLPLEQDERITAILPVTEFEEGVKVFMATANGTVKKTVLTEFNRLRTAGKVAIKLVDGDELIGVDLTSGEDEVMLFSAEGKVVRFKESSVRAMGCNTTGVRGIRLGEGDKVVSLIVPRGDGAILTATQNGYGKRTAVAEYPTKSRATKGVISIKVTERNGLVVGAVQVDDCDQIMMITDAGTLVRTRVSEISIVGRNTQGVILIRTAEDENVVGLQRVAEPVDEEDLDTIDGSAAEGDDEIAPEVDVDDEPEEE

| Compound | IC50 |
| --- | --- |
| COc1nccnc1-c1cnc2c(c1)CC1(C(=O)NC(=O)NC1=O)[C@H]1[C@H](C)O[C@H](C)CN21 (relative stereo) [Example 92, (6aS,7S,9R)-rel-3-(3-Methoxypyrazin-2-yl)-7,9-dimethyl-6a,7,9,10-tetrahydro-2′H,5H-spiro[1,4-oxazino[4,3-a][1,8]naphthyridine-6,5′-pyrimidine]-2′,4′,6′(1′H,3′H)-trione] | 20 µM |
| C[C@@H]1CN2c3ccc(-c4ccnnc4)nc3CC3(C(=O)NC(=O)NC3=O)[C@H]2[C@H](C)O1 (relative stereo) [Example 95, (2R,4S,4aS)-rel-2,4-Dimethyl-8-(pyridazin-4-yl)-1,2,4,4a-tetrahydro-2′H,6H-spiro[1,4-oxazino[4,3-a][1,5]naphthyridine-5,5′-pyrimidine]-2′,4′,6′(1′H,3′H)-trione] | 2 µM |
| C[C@@H]1CN2c3cnc(-c4ccnnc4)cc3CC3(C(=O)NC(=O)NC3=O)[C@H]2[C@H](C)O1 (relative stereo) [Example 96, (6aS,7S,9R)-rel-7,9-Dimethyl-3-(pyridazin-4-yl)-6a,7,9,10-tetrahydro-2′H,5H-spiro[1,4-oxazino[4,3-a][1,7]naphthyridine-6,5′-pyrimidine]-2′,4′,6′(1′H,3′H)-trione] | 3 µM |
| C[C@@H]1CN2c3ncc(-c4ncco4)cc3CC3(C(=O)NC(=O)NC3=O)[C@H]2[C@H](C)O1 (relative stereo) [Example 97, (6aS,7S,9R)-rel-7,9-Dimethyl-3-(1,3-oxazol-2-yl)-6a,7,9,10-tetrahydro-2′H,5H-spiro[1,4-oxazino[4,3-a][1,8]naphthyridine-6,5′-pyrimidine]-2′,4′,6′(1′H,3′H)-trione] | 44 µM |
| C[C@@H]1CN2c3ccc(-c4ncco4)nc3CC3(C(=O)NC(=O)NC3=O)[C@H]2[C@H](C)O1 (relative stereo) [Example 98, (2R,4S,4aS)-rel-2,4-Dimethyl-8-(1,3-oxazol-2-yl)-1,2,4,4a-tetrahydro-2′H,6H-spiro[1,4-oxazino[4,3-a][1,5]naphthyridine-5,5′-pyrimidine]-2′,4′,6′(1′H,3′H)-trione] | 51 µM |
| C[C@@H]1CN2c3cnc(-c4ncco4)cc3CC3(C(=O)NC(=O)NC3=O)[C@H]2[C@H](C)O1 (relative stereo) [Example 99, (6aS,7S,9R)-rel-7,9-Dimethyl-3-(1,3-oxazol-2-yl)-6a,7,9,10-tetrahydro-2′H,5H-spiro[1,4-oxazino[4,3-a][1,7]naphthyridine-6,5′-pyrimidine]-2′,4′,6′(1′H,3′H)-trione] | 44 µM |
| C[C@@H]1CN2c3ncc(-c4cscn4)cc3CC3(C(=O)NC(=O)NC3=O)[C@H]2[C@H](C)O1 (relative stereo) [Example 100, (6aS,7S,9R)-rel-7,9-Dimethyl-3-(1,3-thiazol-4-yl)-6a,7,9,10-tetrahydro-2′H,5H-spiro[1,4-oxazino[4,3-a][1,8]naphthyridine-6,5′-pyrimidine]-2′,4′,6′(1′H,3′H)-trione] | 7 µM |
| C[C@@H]1CN2c3ccc(-c4cscn4)nc3CC3(C(=O)NC(=O)NC3=O)[C@H]2[C@H](C)O1 (relative stereo) [Example 101, (2R,4S,4aS)-rel-2,4-Dimethyl-8-(1,3-thiazol-4-yl)-1,2,4,4a-tetrahydro-2′H,6H-spiro[1,4-oxazino[4,3-a][1,5]naphthyridine-5,5′-pyrimidine]-2′,4′,6′(1′H,3′H)-trione] | 2 µM |
| C[C@@H]1CN2c3cnc(-c4cscn4)cc3CC3(C(=O)NC(=O)NC3=O)[C@H]2[C@H](C)O1 (relative stereo) [Example 102, (6aS,7S,9R)-rel-7,9-Dimethyl-3-(1,3-thiazol-4-yl)-6a,7,9,10-tetrahydro-2′H,5H-spiro[1,4-oxazino[4,3-a][1,7]naphthyridine-6,5′-pyrimidine]-2′,4′,6′(1′H,3′H)-trione] | 16 µM |
| COc1cncc(-c2cnc3c(c2)CC2(C(=O)NC(=O)NC2=O)[C@H]2[C@H](C)O[C@H](C)CN32)n1 (relative stereo) [Example 103, (6aS,7S,9R)-rel-3-(6-Methoxypyrazin-2-yl)-7,9-dimethyl-6a,7,9,10-tetrahydro-2′H,5H-spiro[1,4-oxazino[4,3-a][1,8]naphthyridine-6,5′-pyrimidine]-2′,4′,6′(1′H,3′H)-trione] | 4 µM |
| COc1cncc(-c2ccc3c(n2)CC2(C(=O)NC(=O)NC2=O)[C@H]2[C@H](C)O[C@H](C)CN32)n1 (relative stereo) [Example 104, (2R,4S,4aS)-rel-8-(6-Methoxypyrazin-2-yl)-2,4-dimethyl-1,2,4,4a-tetrahydro-2′H,6H-spiro[1,4-oxazino[4,3-a][1,5]naphthyridine-5,5′-pyrimidine]-2′,4′,6′(1′H,3′H)-trione] | 22 µM |
| COc1nc(-c2cnc3c(c2)CC2(C(=O)NC(=O)NC2=O)[C@H]2[C@H](C)O[C@H](C)CN32)cs1 (relative stereo) [Example 107, (6aS,7S,9R)-rel-3-(2-Methoxy-1,3-thiazol-4-yl)-7,9-dimethyl-6a,7,9,10-tetrahydro-2′H,5H-spiro[1,4-oxazino[4,3-a][1,8]naphthyridine-6,5′-pyrimidine]-2′,4′,6′(1′H,3′H)-trione] | 6 µM |
| Cc1nc(C)c(-c2ccc3c(n2)CC2(C(=O)NC(=O)NC2=O)[C@H]2[C@H](C)O[C@H](C)CN32)s1 (relative stereo) [Example 109, (2R,4S,4aS)-rel-8-(2,4-Dimethyl-1,3-thiazol-5-yl)-2,4-dimethyl-1,2,4,4a-tetrahydro-2′H,6H-spiro[1,4-oxazino[4,3-a][1,5]naphthyridine-5,5′-pyrimidine]-2′,4′,6′(1′H,3′H)-trione] | 14 µM |
| C[C@@H]1CN2c3ncc(-c4ccc(N5CCOCC5)nc4)cc3CC3(C(=O)NC(=O)NC3=O)[C@H]2[C@H](C)O1 (relative stereo) [Example 111, (6aS,7S,9R)-rel-7,9-Dimethyl-3-[6-(morpholin-4-yl)pyridin-3-yl]-6a,7,9,10-tetrahydro-2′H,5H-spiro[1,4-oxazino[4,3-a][1,8]naphthyridine-6,5′-pyrimidine]-2′,4′,6′(1′H,3′H)-trione] | 23 µM |
| C[C@@H]1CN2c3cnc(-c4ccc(N5CCOCC5)nc4)cc3CC3(C(=O)NC(=O)NC3=O)[C@H]2[C@H](C)O1 (relative stereo) [Example 112, (6aS,7S,9R)-rel-7,9-Dimethyl-3-[6-(morpholin-4-yl)pyridin-3-yl]-6a,7,9,10-tetrahydro-2′H,5H-spiro[1,4-oxazino[4,3-a][1,7]naphthyridine-6,5′-pyrimidine]-2′,4′,6′(1′H,3′H)-trione] | > 83 µM |
| C[C@@H]1CN2c3ncc(C#N)cc3CC3(C(=O)NC(=O)NC3=O)[C@H]2[C@H](C)O1 (relative stereo) [Example 113, (6aS,7S,9R)-rel-7,9-Dimethyl-2′,4′,6′-trioxo-1′,3′,4′,6′,6a,7,9,10-octahydro-2′H,5H-spiro[1,4-oxazino[4,3-a][1,8]naphthyridine-6,5′-pyrimidine]-3-carbonitrile] | 22 µM |
| C[C@@H]1CN2c3c(nc(Br)c(F)c3Cl)CC3(C(=O)NC(=O)NC3=O)[C@H]2[C@H](C)O1 (relative stereo) [Example 114, (2R,4S,4aS)-rel-8-Bromo-10-chloro-9-fluoro-2,4-dimethyl-2,4,4a,6-tetrahydro-1H,1′H-spiro[[1,4]oxazino[4,3-a][1,5]naphthyridine-5,5′-pyrimidine]-2′,4′,6′(3′H)-trione] | 2 µM |
| C[C@@H]1CN2c3cc(Cl)ncc3CC3(C(=O)NC(=O)NC3=O)[C@H]2[C@H](C)O1 (relative stereo) [Example 115, (2R,4S,4aS)-rel-9-chloro-2,4-dimethyl-1,2,4,4a-tetrahydro-2′H,6H-spiro[1,4-oxazino[4,3-a][1,6]naphthyridine-5,5′-pyrimidine]-2′,4′,6′(1′H,3′H)-trione] | > 20 µM |
| C[C@@H]1CN2c3cnc(-c4cccs4)cc3CC3(C(=O)NC(=O)NC3=O)[C@H]2[C@H](C)O1 (relative stereo) [Example 116, (6aS,7S,9R)-rel-7,9-dimethyl-3-(thiophen-2-yl)-6a,7,9,10-tetrahydro-1′H,5H-spiro[[1,4]oxazino[4,3-a][1,7]naphthyridine-6,5′-pyrimidine]-2′,4′,6′(3′H)-trione] | 33 µM |
| C[C@@H]1CN2c3cnc(-c4ccn[nH]4)cc3CC3(C(=O)NC(=O)NC3=O)[C@H]2[C@H](C)O1 (relative stereo) [Example 118, (6aS,7S,9R)-rel-7,9-Dimethyl-3-(1H-pyrazol-5-yl)-6a,7,9,10-tetrahydro-2′H,5H-spiro[1,4-oxazino[4,3-a][1,7]naphthyridine-6,5′-pyrimidine]-2′,4′,6′(1′H,3′H)-trione] | 19 µM |
| C[C@H]1CN2c3ncc(-c4nnn(C)n4)cc3CC3(C(=O)NC(=O)NC3=O)[C@@H]2[C@@H](C)O1 (relative stereo) [Example 120(a), (6aR,7R,9S)-rel-7,9-Dimethyl-3-(2-methyl-2H-tetrazol-5-yl)-6a,7,9,10-tetrahydro-2′H,5H-spiro[1,4-oxazino[4,3-a][1,8]naphthyridine-6,5′-pyrimidine]-2′,4′,6′(1′H,3′H)-trione] | 12 µM |

Same assay, conditions: E. coli DNA gyrase supercoiling; asterisk: no IC50 obtained at or below the indicated concentration; read-out: IC50

| Compound | IC50 |
| --- | --- |
| COc1nccnc1-c1cc2c(cn1)N1C[C@@H](C)O[C@@H](C)[C@@H]1C1(C2)C(=O)NC(=O)NC1=O (relative stereo) [Example 93, (6aS,7S,9R)-rel-3-(3-Methoxypyrazin-2-yl)-7,9-dimethyl-6a,7,9,10-tetrahydro-2′H,5H-spiro[1,4-oxazino[4,3-a][1,7]naphthyridine-6,5′-pyrimidine]-2′,4′,6′(1′H, 3H)-trione] | > 83 µM |
| C[C@@H]1CN2c3ncc(-c4ccnnc4)cc3CC3(C(=O)NC(=O)NC3=O)[C@H]2[C@H](C)O1 (relative stereo) [Example 94, (6aS,7S,9R)-rel-7,9-Dimethyl-3-(pyridazin-4-yl)-6a,7,9,10-tetrahydro-2′H,5H-spiro[1,4-oxazino[4,3-a][1,8]naphthyridine-6,5′-pyrimidine]-2′,4′,6′(1′H, 3H)-trione] | 7 µM |

Source: patent publication US20110178064A1, “SPIRO CONDENSED […] DERIVATIVES FOR USE AS ANTIBACTERIAL” (A[…]&D, priority 2007, published 2011)
